{"source": "patent US20090258053A1", "about": "“MEDICAL STENT PROVIDED WITH A COMBINATION OF MELATONIN AND PACLITAXEL” (Blue Medical Deevices BV, priority 2006, published 2009)", "key": {"[1]": {"test_system": "human coronary artery smooth muscle cells (HCASMC)", "experiment": "CellTiter 96 One solution (MTS) cell proliferation assay, HCASMC", "format": "cell-based", "description": "(§1) Human coronary artery endothelial cells (HCAEC) were purchased from Cambrex and human coronary artery smooth muscle cells (HCASMC) were purchased from Promocell. Cells were used for experiments between passage 4 and passage 12. Both cell types were cultured in their respective complete culture medium with the following composition: • HCASMC: Smooth Muscle Cell Growth Medium 2: Epidermal Growth Factor (EGF), basic Fibroblast Factor (FGF), Insulin, Fetal Calf Serum (FCS) 5%, Amphotericin B, Gentamicin. • HCAEC: Endothelial Growth Media-2 MV: hEGF, Hydrocortisone, GA-1000, FBS 5%, VEGF, hFGF-B, R3-IGF-1, Ascorbic Acid Medium was changed every other day. 24 hours prior to growth factor stimulation, the medium was replaced by fresh culture medium, however, without growth factors to increase the cellular sensitivity to the subsequent growth factor stimulation. Subconfluent HCAEC were stimulated with 10 ng/ml of VEGF-A, whereas subconfluent HCASMC were stimulated with 10 ng/ml of PDGF-BB. Likewise, both cell types were stimulated with 25% of human serum (final concentration). Melatonin (Acros organics) was kindly provided by BlueMedical Devices BV. A stock solution was prepared in DMSO, aliquoted and stored at −20° C. For each experiment a fresh aliquot was opened and diluted to the desired final concentration in cell culture medium. All proliferation and cytotoxicity experiments were performed on cells cultured on 96 well plates (Costar). The CellTiter 96 One solution cell proliferation assay from Promega was used to assess cell proliferation in a 96-well plate. This assay makes use of the MTS tetrazolium compound as a cellular substrate. MTS is bioreduced by living cells into a coloured formazan product that is soluble in tissue culture medium and absorbs light at 490 nm. The quantity of formazan produced is directly proportional to the number of living cells in culture. After 24 h stimulation, 20 μl of MTS reagent was added to the cells cultured in 100 ul of medium per well. After 2 to 4 hours of incubation at 37° C., 5% CO2, the absorbance at 490 nm was recorded using a 96-well plate reader (Tecan)."}, "HCAEC [2]": {"test_system": "HCAEC", "experiment": "Chemotaxis towards VEGF-A, modified Boyden chamber, HCAEC", "format": "cell-based, human", "conditions": "2 mM Melatonin; VEGF-A 10 ng/ml; migration 4 hours; performed only once", "description": "Chemotaxis experiments were performed using a modified Boyden chamber. The apparatus consists of two multi-well chambers separated by a filter containing pores of uniform size. A solution containing a chemokine or chemotactic factor is placed in the lower/bottom chamber and a cell suspension is placed in the upper chamber. Cells can migrate through the pores across the filter and towards the chemoattractant in the lower chamber. Cells that migrated across the filter and remain attached to the lower side of the membrane are counted. Data are expressed in terms of migration index: the number of cells that migrated in response to agonist stimulation compared to the number of cells that migrated randomly, i.e. to medium only. Chemotaxis experiments so far were only performed with HCAEC. For these cells a 25×80 mm polycarbonate filter, […] (PVP) free was used (Whatman) with a pore size of […]. Before migration the filter was coated with collagen. Endothelial cells were incubated with Melatonin at 2 mM prior to and during migration. After 24 hours pre-incubation with Melatonin, untreated and Melatonin-treated cells were detached with trypsin and a cell suspension (0.5 million cells/ml) was loaded in the upper part of the chamber. […] At the end of migration, cells were fixed on the filter, stained with Giemsa and counted using a regular optic microscope."}, "[3]": {"test_system": "HUVEC (Human Umbilical Vein Endothelial Cells)", "experiment": "[3H]-thymidine incorporation, HUVEC stimulated with VEGF-A", "format": "cell-based", "conditions": "VEGF A 10 ng/ml 24 hours", "description": "To investigate, whether melatonin has similar effects on other cell types, HUVEC (Human Umbilical Vein Endothelial Cells, Promocell) were tested. HUVEC were cultured in the corresponding complete medium (Endothelial Cell Growth Medium: ECGS/H 0.4%, Fetal Calf Serum 2%, Epidermal Growth Factor 0.1 ng/ml, Hydrocortison 1 μg/ml, basic Fibroblast Factor 1 ng/ml, Amphotericin B 50 ng/ml, Gentamicin 50 μg/ml). 24 hours prior to stimulation, the medium was replaced by a medium containing 2% serum and antibiotics, but devoid of the other complements. Then, HUVEC were stimulated with 10 ng/ml of VEGF-A for 24 hours. HUVEC were incubated for 48 hours with Melatonin and stimulated for 24 hours with VEGF-A at 10 ng/ml. After 24 hours of stimulation, the cells were incubated with radioactive [^3H]-thymidine. Two hour later, the medium was removed and cell-bound DNA was precipitated using 5% TCA (Trichloroacetic acid). Then, [^3H]-thymidine incorporation was measured using a beta-counter."}, "HCASMC": {"test_system": "HCASMC", "experiment": "CytoTox-ONE LDH release cytotoxicity assay, HCASMC", "format": "cell-based, human", "conditions": "48 hours, 0.2 to 6 mM Melatonin", "description": "(§2) Cytotoxicity experiments were performed with cells cultured on 96-well plates. The CytoTox-ONE™ Assay from Promega was used to assess the membrane integrity of cells. This test is based on a fluorometric method to estimate the number of non viable cells present in multiwell plates by measuring the release of lactate dehydrogenase (LDH) from cells with damaged membranes. Subconfluent cells were incubated for 48 hours with Melatonin at concentrations between 0.2 and 6 mM. During the 48 h Melatonin incubation, the medium was not changed to avoid removal of any detached cells. As a positive control three wells of untreated cells were incubated with lysis buffer (delivered with the assay) before measurement. At the end of the Melatonin incubation period, a volume of CytoTox-ONE reagent equal to the volume of cell culture medium present in each well was added. After 10 min incubation at 22° C. (room temperature), 50 μl of stop solution was added per 100 μl of CytoTox-ONE reagent added. The plate was shaked for 10 seconds and fluorescence was recorded with an excitation wavelength of 560 nm and an emission wavelength of 590 nm (Spectramax M2 fluorescence plate reader, Molecular devices)."}, "[4]": {"test_system": "human coronary artery endothelial cells (HCAEC)", "experiment": "CellTiter 96 One solution (MTS) cell proliferation assay, HCAEC", "format": "cell-based", "description": "as §1"}, "HCAEC [5]": {"test_system": "HCAEC", "experiment": "CytoTox-ONE LDH release cytotoxicity assay, HCAEC", "format": "cell-based, human", "conditions": "48 hours, 0.2 to 6 mM Melatonin", "description": "as §2"}}, "note": "Values joined by “and” are separate entries in the source; they are usually repeats but may differ in a detail not shown here. Equal entries are not always repeated."}
{"smiles": "COc1ccc2[nH]cc(CCNC(C)=O)c2c1", "note": "[Melatonin, N-acetyl-5-methoxytryptamine]", "values": [{"measurement": "concentrations at which proliferation of HCASMC is strongly inhibited", "setting": "[1]", "value": "higher than 0.2 mM"}, {"measurement": "effect on number of smooth muscle cells", "setting": "[1]; 1 mM Melatonin, 24 hours pre-treatment, PDGF BB 10 ng/ml 24 h", "value": "significant decrease in the number of smooth muscle cells"}, {"measurement": "effect on the proliferation of HCASMC", "setting": "[1]; Melatonin up to 0.1 mM, PDGF BB 10 ng/ml 24 h", "value": "no significant effect"}, {"measurement": "concentration of maximal inhibitory effect on HCASMC", "setting": "[1]; PDGF-BB stimulated", "value": 5, "unit": "mM"}, {"measurement": "inhibitory effect on HCASMC at higher concentrations", "setting": "[1]; above 5 mM, up to 10 mM", "value": "no significant further increase in the inhibitory effect"}, {"measurement": "effect on chemotactic response of HCAEC towards VEGF-A", "setting": "HCAEC [2]", "value": "did not have any significant effect"}, {"measurement": "effect on HUVEC", "setting": "[3]; 0.2 mM Melatonin, 48 hours", "value": "inhibitory effect"}, {"measurement": "VEGF-A induced [3H]-thymidine incorporation", "setting": "[3]; Melatonin 48 hours", "value": "completely inhibited"}, {"measurement": "cytotoxic effect (LDH release) on HCASMC", "setting": "HCASMC", "value": "does not induce any detectable cytotoxic effect"}, {"measurement": "concentrations at which proliferation of HCAEC is strongly inhibited", "setting": "[4]", "value": "higher than 0.2 mM"}, {"measurement": "effect on HCAEC cell number", "setting": "[4]; Melatonin between 1 mM and 6 mM", "value": "dramatic decrease in cell number"}, {"measurement": "sensitivity of HCAEC proliferation", "setting": "[4]; Melatonin up to 0.1 mM", "value": "not sensitive"}, {"measurement": "concentration of maximal effect on HCAEC cell number", "setting": "[4]; subconfluent cells", "value": "3 mM and 6 mM"}, {"measurement": "cytotoxic effect (LDH release) on HCAEC", "setting": "HCAEC [5]", "value": "does not induce any detectable cytotoxic effect"}]}
